Test results reported in US20120238447A1 (priority 2009, published 2012).
Like-named read-outs stand apart in the source and are kept apart here.

Assays:
Septoria tritici = experiment: Activity against leaf blotch on wheat caused by Septoria tritici (microtiter plate test); assay type: cell-based; conditions: MTP, 405 nm, 7 days after inoculation, 18° C
Pyricularia oryzae = assay type: cell-based; conditions: MTP, 405 nm, 7 days after inoculation, 18° C, efficacy from relative growth in %

| Compound | Observed efficacy (Septoria tritici; Triazamat alone, 0.25 ppm) | Observed efficacy (Pyricularia oryzae; triazamat alone, 1 ppm) | Observed efficacy (Septoria tritici; Pyraclostrobin alone, 0.001 ppm) | Observed efficacy (Pyricularia oryzae; pyraclostrobin alone, 0.004 ppm) |
| --- | --- | --- | --- | --- |
| CCOC(=O)CSc1nc(C(C)(C)C)nn1C(=O)N(C)C [triazamat, triazamate] | 4 | 4 | – | – |
| COC(=O)N(OC)c1ccccc1COc1ccn(-c2ccc(Cl)cc2)n1 [pyraclostrobin] | – | – | 7 | 23 |
